Earlier results as cited in patent US6996473B2, “Method for screening and producing compound libraries” (Lion Bioscience AG, priority 1998, dated 2006).
Structures can show the parent of a compound that is named as a salt. Where two headings read alike, the source gives them in different places.

Legend:
[1] = Stomach
[2] = system: rabbit intestinal tissue; settings: intestinal transport mechanism represented by the standard

Row | Cmax (Clinical 1505a) [ng/mL] | Tmax (Clinical 1505a) [h] | Cmax (Clinical 1505b) [ng/mL] | Tmax (Clinical 1505b) [h] | bioavailability of fasted patients in clinical trials (fasted patients, oral) | Solubility [1] [mg/mL] | Transport mechanism [2] | SMILES
1 | 550 | 1.43 | 590 | 1.43 | 3-20% | 31 | – | Nc1nc(O)c2ncn(COC(CO)CO)c2n1 [Gancyclovir, 9-(1,3-dihydroxy-2-propoxymethyl) guanine, monosodium salt]
2 | – | – | – | – | – | – | Carrier-mediated Influx | O=C[C@H](O)[C@@H](O)[C@H](O)[C@H](O)CO [D-glucose]
3 | – | – | – | – | – | – | Passive Paracellular | OC[C@@H](O)[C@@H](O)[C@H](O)[C@H](O)CO [mannitol]
